{"source": "PubChem BioAssay (NCI)", "experiment_in_all_cases": "NCI anticancer screen, dose series, 48 h", "key": {"NCI/ADR-RES ovarian": {"system": "NCI/ADR-RES ovarian"}, "HS 578T breast": {"system": "HS 578T breast"}, "SF-295 CNS": {"system": "SF-295 CNS"}, "OVCAR-4 ovarian": {"system": "OVCAR-4 ovarian"}, "SK-OV-3 ovarian": {"system": "SK-OV-3 ovarian"}, "MOLT-4 leukemia": {"system": "MOLT-4 leukemia"}, "IGROV1 ovarian": {"system": "IGROV1 ovarian"}, "SNB-19 CNS": {"system": "SNB-19 CNS"}, "UO-31 renal": {"system": "UO-31 renal"}, "NCI-H23 lung": {"system": "NCI-H23 lung"}, "SR leukemia": {"system": "SR leukemia"}, "K-562 leukemia": {"system": "K-562 leukemia"}, "MDA-N": {"system": "MDA-N"}, "SK-MEL-5 melanoma": {"system": "SK-MEL-5 melanoma"}, "MALME-3M melanoma": {"system": "MALME-3M melanoma"}, "COLO 205 colon": {"system": "COLO 205 colon"}, "RXF 393 renal": {"system": "RXF 393 renal"}, "KM12 colon": {"system": "KM12 colon"}, "HCT-15 colon": {"system": "HCT-15 colon"}, "NCI-H460 lung": {"system": "NCI-H460 lung"}, "PC-3 prostate": {"system": "PC-3 prostate"}, "SW-620 colon": {"system": "SW-620 colon"}, "MDA-MB-231 breast": {"system": "MDA-MB-231 breast"}, "SN12C renal": {"system": "SN12C renal"}, "OVCAR-5 ovarian": {"system": "OVCAR-5 ovarian"}, "HOP-92 NSCLC": {"system": "HOP-92 NSCLC"}, "OVCAR-3 ovarian": {"system": "OVCAR-3 ovarian"}, "LOX IMVI melanoma": {"system": "LOX IMVI melanoma"}, "TK-10 renal": {"system": "TK-10 renal"}, "BT-549 breast": {"system": "BT-549 breast"}, "A549 NSCLC": {"system": "A549 NSCLC"}, "UACC-257 melanoma": {"system": "UACC-257 melanoma"}, "RPMI-8226 leukemia": {"system": "RPMI-8226 leukemia"}, "M14 melanoma": {"system": "M14 melanoma"}, "HCT-116 colon": {"system": "HCT-116 colon"}, "MDA-MB-435": {"system": "MDA-MB-435"}, "A498 renal": {"system": "A498 renal"}, "HT29 colon": {"system": "HT29 colon"}, "SF-268 CNS": {"system": "SF-268 CNS"}, "HL-60(TB) leukemia": {"system": "HL-60(TB) leukemia"}, "T-47D breast": {"system": "T-47D breast"}, "EKVX NSCLC": {"system": "EKVX NSCLC"}, "OVCAR-8 ovarian": {"system": "OVCAR-8 ovarian"}, "CCRF-CEM leukemia": {"system": "CCRF-CEM leukemia"}, "ACHN renal": {"system": "ACHN renal"}, "SK-MEL-2 melanoma": {"system": "SK-MEL-2 melanoma"}, "SF-539 CNS": {"system": "SF-539 CNS"}, "CAKI-1 renal": {"system": "CAKI-1 renal"}, "UACC-62 melanoma": {"system": "UACC-62 melanoma"}, "SK-MEL-28 melanoma": {"system": "SK-MEL-28 melanoma"}, "U251 CNS": {"system": "U251 CNS"}, "DU-145 prostate": {"system": "DU-145 prostate"}, "786-0 renal": {"system": "786-0 renal"}, "HOP-62 NSCLC": {"system": "HOP-62 NSCLC"}, "SNB-75 CNS": {"system": "SNB-75 CNS"}, "MCF7 breast": {"system": "MCF7 breast"}}, "note": "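How tested: cells in 96-well plates exposed to compound for 48 hours at five concentrations. TGI: total growth inhibition.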", "data": [{"smiles": "OC1(c2ccc(Cl)cc2)c2c(ccc3c2OCO3)C2=NCCN21", "note": "(stereo unspecified)", "values": [{"measurement": "TGI", "setting": "NCI/ADR-RES ovarian", "result": "> 100", "unit": "µM"}, {"measurement": "TGI", "setting": "HS 578T breast", "result": 76.7, "unit": "µM"}, {"measurement": "TGI", "setting": "SF-295 CNS", "result": "> 100", "unit": "µM"}, {"measurement": "TGI", "setting": "OVCAR-4 ovarian", "result": "> 100", "unit": "µM"}, {"measurement": "TGI", "setting": "SK-OV-3 ovarian", "result": "> 100", "unit": "µM"}, {"measurement": "TGI", "setting": "MOLT-4 leukemia", "result": "> 100", "unit": "µM"}, {"measurement": "TGI", "setting": "IGROV1 ovarian", "result": 54.9, "unit": "µM"}, {"measurement": "TGI", "setting": "SNB-19 CNS", "result": "> 100", "unit": "µM"}, {"measurement": "TGI", "setting": "UO-31 renal", "result": "> 100", "unit": "µM"}, {"measurement": "TGI", "setting": "NCI-H23 lung", "result": "> 100", "unit": "µM"}, {"measurement": "TGI", "setting": "SR leukemia", "result": 53, "unit": "µM"}, {"measurement": "TGI", "setting": "K-562 leukemia", "result": 70.6, "unit": "µM"}, {"measurement": "TGI", "setting": "MDA-N", "result": 87.4, "unit": "µM"}, {"measurement": "TGI", "setting": "SK-MEL-5 melanoma", "result": 32.1, "unit": "µM"}, {"measurement": "TGI", "setting": "MALME-3M melanoma", "result": 21.2, "unit": "µM"}, {"measurement": "TGI", "setting": "COLO 205 colon", "result": 33, "unit": "µM"}, {"measurement": "TGI", "setting": "RXF 393 renal", "result": 86, "unit": "µM"}, {"measurement": "TGI", "setting": "KM12 colon", "result": 43.9, "unit": "µM"}, {"measurement": "TGI", "setting": "HCT-15 colon", "result": "> 100", "unit": "µM"}, {"measurement": "TGI", "setting": "NCI-H460 lung", "result": "> 100", "unit": "µM"}, {"measurement": "TGI", "setting": "PC-3 prostate", "result": "> 100", "unit": "µM"}, {"measurement": "TGI", "setting": "SW-620 colon", "result": "> 100", "unit": "µM"}, {"measurement": "TGI", "setting": "MDA-MB-231 breast", "result": 91.8, "unit": "µM"}, {"measurement": "TGI", "setting": "SN12C renal", "result": "> 100", "unit": "µM"}, {"measurement": "TGI", "setting": "OVCAR-5 ovarian", "result": "> 100", "unit": "µM"}, {"measurement": "TGI", "setting": "HOP-92 NSCLC", "result": 73.5, "unit": "µM"}, {"measurement": "TGI", "setting": "OVCAR-3 ovarian", "result": "> 100", "unit": "µM"}, {"measurement": "TGI", "setting": "LOX IMVI melanoma", "result": "> 100", "unit": "µM"}, {"measurement": "TGI", "setting": "TK-10 renal", "result": 45.7, "unit": "µM"}, {"measurement": "TGI", "setting": "BT-549 breast", "result": "> 100", "unit": "µM"}, {"measurement": "TGI", "setting": "A549 NSCLC", "result": "> 100", "unit": "µM"}, {"measurement": "TGI", "setting": "UACC-257 melanoma", "result": 37.2, "unit": "µM"}, {"measurement": "TGI", "setting": "RPMI-8226 leukemia", "result": 42.5, "unit": "µM"}, {"measurement": "TGI", "setting": "M14 melanoma", "result": 30.8, "unit": "µM"}, {"measurement": "TGI", "setting": "HCT-116 colon", "result": "> 100", "unit": "µM"}, {"measurement": "TGI", "setting": "MDA-MB-435", "result": "> 100", "unit": "µM"}, {"measurement": "TGI", "setting": "A498 renal", "result": 48.2, "unit": "µM"}, {"measurement": "TGI", "setting": "HT29 colon", "result": 91.5, "unit": "µM"}, {"measurement": "TGI", "setting": "SF-268 CNS", "result": "> 100", "unit": "µM"}, {"measurement": "TGI", "setting": "HL-60(TB) leukemia", "result": "> 100", "unit": "µM"}, {"measurement": "TGI", "setting": "T-47D breast", "result": "> 100", "unit": "µM"}, {"measurement": "TGI", "setting": "EKVX NSCLC", "result": "> 100", "unit": "µM"}, {"measurement": "TGI", "setting": "OVCAR-8 ovarian", "result": "> 100", "unit": "µM"}, {"measurement": "TGI", "setting": "CCRF-CEM leukemia", "result": "> 100", "unit": "µM"}, {"measurement": "TGI", "setting": "ACHN renal", "result": "> 100", "unit": "µM"}, {"measurement": "TGI", "setting": "SK-MEL-2 melanoma", "result": 43.4, "unit": "µM"}, {"measurement": "TGI", "setting": "SF-539 CNS", "result": "> 100", "unit": "µM"}, {"measurement": "TGI", "setting": "CAKI-1 renal", "result": "> 100", "unit": "µM"}, {"measurement": "TGI", "setting": "UACC-62 melanoma", "result": 37, "unit": "µM"}, {"measurement": "TGI", "setting": "SK-MEL-28 melanoma", "result": 34.6, "unit": "µM"}, {"measurement": "TGI", "setting": "U251 CNS", "result": "> 100", "unit": "µM"}, {"measurement": "TGI", "setting": "DU-145 prostate", "result": "> 100", "unit": "µM"}, {"measurement": "TGI", "setting": "786-0 renal", "result": "> 100", "unit": "µM"}, {"measurement": "TGI", "setting": "HOP-62 NSCLC", "result": "> 100", "unit": "µM"}, {"measurement": "TGI", "setting": "SNB-75 CNS", "result": 59, "unit": "µM"}, {"measurement": "TGI", "setting": "MCF7 breast", "result": "> 100", "unit": "µM"}]}]}
